Test systems include EKVX NSCLC; KM12 colon; MOLT-4 leukemia; OVCAR-3 ovarian; OVCAR-4 ovarian; SK-OV-3 ovarian; SNB-75 CNS; SW-620 colon; UACC-62 melanoma.
Assay in all cases: NCI tumour cell line growth inhibition, 48 h

The record followed here is PubChem BioAssay (NCI).

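48-hour exposure; five concentrations; linearly interpolated endpoints. GI50 is the concentration that inhibits growth by half. TGI: total growth inhibition.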

On to `Cc1nn(-c2ccccc2)c2nc(N3CCOCC3)nnc12`, for which the TGI in the assay with EKVX NSCLC, in the assay on KM12 colon, in the assay with MOLT-4 leukemia, in the assay on OVCAR-3 ovarian, in the assay with OVCAR-4 ovarian and in the assay on SK-OV-3 ovarian was over 100 µM in each case. The TGI in the assay on SNB-75 CNS, in the assay on SW-620 colon and with UACC-62 melanoma was over 100 µM each time.
Regarding `N#Cc1nc(Nc2cccc3ccccc23)sc1N`, the TGI in the assay on KM12 colon, with MOLT-4 leukemia, in the assay with OVCAR-3 ovarian, in the assay on OVCAR-4 ovarian, in the assay with SK-OV-3 ovarian and in the assay with SNB-75 CNS was over 100 µM in each case. Moreover, the TGI with SW-620 colon is over 100 µM; with UACC-62 melanoma, 59 µM.
As for `CCOc1ccccc1C=C1c2ccccc2C(=O)c2ccccc21`, the TGI with EKVX NSCLC is 61.4 µM; in the assay on KM12 colon it was over 100 µM; in the assay with MOLT-4 leukemia, 29.4 µM; in the assay with OVCAR-3 ovarian, 10.5 µM; in the assay with OVCAR-4 ovarian it was over 100 µM; in the assay with SK-OV-3 ovarian, 8.67 µM. In addition, the TGI in the assay with SW-620 colon is 41.4 µM; in the assay with UACC-62 melanoma it was over 100 µM.
In the case of `COC(=O)c1cc2c(s1)C(=O)c1ccccc1-2`, the TGI in the assay on EKVX NSCLC, with KM12 colon, with MOLT-4 leukemia, in the assay with OVCAR-3 ovarian, in the assay on OVCAR-4 ovarian and in the assay with SK-OV-3 ovarian was over 100 µM throughout. Besides, the TGI with SNB-75 CNS, in the assay with SW-620 colon and with UACC-62 melanoma was over 100 µM each time.
With `Cc1cc([N+](=O)[O-])ccc1Nc1cccc(Cl)c1C`, the TGI with EKVX NSCLC is 49.8 µM; in the assay with KM12 colon it was 31 µM; in the assay on MOLT-4 leukemia, 33 µM; in the assay with OVCAR-3 ovarian, 27.8 µM; in the assay with OVCAR-4 ovarian it was 31.4 µM; with SK-OV-3 ovarian it was 47.7 µM. Moreover, the TGI in the assay with SNB-75 CNS amounted to 52.7 µM; with SW-620 colon, 62.7 µM; in the assay on UACC-62 melanoma, 27.2 µM.
Take `CC1(C)COC(c2cccnc2/C=N/O)=N1`: the TGI in the assay with EKVX NSCLC, with KM12 colon, in the assay on MOLT-4 leukemia, with OVCAR-3 ovarian, in the assay with OVCAR-4 ovarian and in the assay with SK-OV-3 ovarian was over 100 µM each time. The TGI with SNB-75 CNS, in the assay on SW-620 colon and with UACC-62 melanoma was over 100 µM in each case.
For the compound `NNC(=S)N/N=C(\CC1OC(=O)c2ccccc21)c1ccccc1O` (configuration not stated), the TGI in the assay on EKVX NSCLC was over 100 µM; in the assay with KM12 colon, over 100 µM; with MOLT-4 leukemia it was 75.6 µM; in the assay on OVCAR-3 ovarian, over 100 µM; with OVCAR-4 ovarian it was over 100 µM; in the assay with SK-OV-3 ovarian, over 100 µM. For the same compound, the figures for the TGI in the assay on SNB-75 CNS, in the assay on SW-620 colon and in the assay on UACC-62 melanoma were 86.1 µM, over 100 µM and over 100 µM, respectively.
Take `COC1(OC)CC2C(=O)N(Cc3ccccc3)C1C(S(=O)(=O)c1ccccc1)C2S(=O)(=O)c1ccccc1` (configuration not stated): the TGI in the assay on KM12 colon stood at 34.1 µM; with MOLT-4 leukemia it was 46.6 µM; in the assay with OVCAR-3 ovarian it was 22.9 µM; in the assay with OVCAR-4 ovarian it was 28.6 µM; in the assay on SK-OV-3 ovarian it was 54.2 µM; with SNB-75 CNS it was 27.6 µM. For the same compound, the TGI was determined as 13.6 µM in the assay on SW-620 colon and 26.2 µM in the assay with UACC-62 melanoma.
`CCC[CH2][Sn]1([CH2]CCC)[O]N=C(c2ccccc2)C(c2ccccc2)[O]1` (configuration not stated): the GI50 is 1.16 µM in the assay on EKVX NSCLC; 3.49 µM in the assay with KM12 colon; 1.81 µM in the assay with MOLT-4 leukemia; 1.42 µM with OVCAR-3 ovarian; 2.13 µM in the assay with OVCAR-4 ovarian; 3.84 µM in the assay on SK-OV-3 ovarian. Moreover, the GI50 was 1.6 µM with SNB-75 CNS, 0.989 µM in the assay with SW-620 colon and 1.42 µM with UACC-62 melanoma. The TGI is 3.01 µM in the assay with EKVX NSCLC; 14.1 µM with KM12 colon; 6.52 µM with MOLT-4 leukemia; 2.84 µM with OVCAR-3 ovarian; 4.18 µM in the assay with OVCAR-4 ovarian; 12.7 µM with SK-OV-3 ovarian. The TGI with SNB-75 CNS turned out to be 4.1 µM; with SW-620 colon, 2.27 µM; with UACC-62 melanoma, 2.81 µM.
As to `CN(C)c1ccc(C(C=C2c3ccccc3Sc3ccccc32)=C(C#N)C#N)cc1`, the TGI in the assay with EKVX NSCLC is over 100 µM; with KM12 colon it was over 100 µM; in the assay with MOLT-4 leukemia it was over 100 µM; with OVCAR-3 ovarian it was over 100 µM; in the assay with OVCAR-4 ovarian, 50.1 µM; with SK-OV-3 ovarian it was over 100 µM. The results for the TGI in the assay with SNB-75 CNS, with SW-620 colon and in the assay on UACC-62 melanoma were 89.9 µM, over 100 µM and over 100 µM, respectively.
As to `CN(C)/C=N/c1nc2c(ncn2C2OC(CO)C(O)C2O)c(=O)[nH]1` (configuration not stated), the TGI in the assay on EKVX NSCLC, with KM12 colon, in the assay on MOLT-4 leukemia, in the assay with OVCAR-3 ovarian, with OVCAR-4 ovarian and in the assay with SK-OV-3 ovarian was over 100 µM throughout. Moreover, the TGI with SNB-75 CNS, in the assay with SW-620 colon and with UACC-62 melanoma was over 100 µM throughout.
Take `O=C(CCn1[nH]c(=O)c(Cl)c(Cl)c1=O)NO`: the TGI in the assay on EKVX NSCLC, with KM12 colon, in the assay with MOLT-4 leukemia, in the assay with OVCAR-3 ovarian, with OVCAR-4 ovarian and in the assay with SK-OV-3 ovarian was over 100 µM in each case. The TGI with SNB-75 CNS, in the assay with SW-620 colon and with UACC-62 melanoma was over 100 µM throughout.
As for `COC(=O)C1=C(O)c2cc(OC)c(OC)cc2C(c2ccc(OC)c(OC)c2)C1` (configuration not stated), the TGI in the assay on EKVX NSCLC, in the assay on KM12 colon, with MOLT-4 leukemia, in the assay with OVCAR-3 ovarian, in the assay with OVCAR-4 ovarian and with SK-OV-3 ovarian was over 100 µM throughout. In addition, the TGI in the assay on SNB-75 CNS, in the assay on SW-620 colon and with UACC-62 melanoma was over 100 µM in each case.
For the compound `COc1ccc(C(=O)C(c2ccc(OC)cc2)C2(O)C(=O)Nc3ccc([N+](=O)[O-])cc32)cc1` (configuration not stated), the TGI in the assay on EKVX NSCLC, in the assay on KM12 colon, with MOLT-4 leukemia, with OVCAR-3 ovarian, with OVCAR-4 ovarian and in the assay on SK-OV-3 ovarian was over 100 µM in each case. Moreover, the TGI with SNB-75 CNS, with SW-620 colon and with UACC-62 melanoma was over 100 µM in each case.
